The values that follow come from patent US6335320B1, “Method of treating fibrotic conditions” (UCB S.A., priority 1998, dated 2002).

No end group written: not given here.

For one test, the system named is anti-alpha SM-1. The conditions noted are these: cited from earlier work.
The next test deals with SM cells. The settings on record: culture of SM cells, microinjection; cited from earlier work.
The test system of the next test is α-SM actin. Nature of the test: Effect on α-SM actin biosynthesis (S35 methionine incorporation) in VSMC. The settings on record: for α-SM actin synthesis, control standardised at 100%: 2 mg/ml, VSMC, 37° C. The class given is cell-based, rat. Here is the method: In this table, the values of the control conditions were standardised at a 100% starting value (time=0 hour).

The test system of a further test is splinted wound. Nature of the test: Open splinted wound contraction model in rats. The settings on record: topical. The class given is in vivo, rat. An excerpt: Test upon an open “splinted Wound” in Rats
In order to measure exclusively contraction, the inventors have developed the “splinted wound” model, based upon the technique of Gabbiani G. et al., J. of Exp.
The wound 2×2 cm in the back of the rat is fixed by suturing its margins to a plastic frame using suture thread (Supramid, metric 3, Braun, Emmenbrücke) on day 0. […] The peptidic product is applied on the open wound starting at the 7th day usually for 3 days and releases the suture of the frame, thus allowing an accelerated contraction which in controls reduces the area of the wound of about ⅔ within 48 hours.
We have measured morphometrically the contraction of the wound (5 rats per group) by means of planimetry (KS 400, Zeiss Vision) and studied the tissues morphologically by means of histological techniques, immunofluorescence with the α-SM actin antibody according to a method described in Gabbiani et al., J. Exp. Med. 1972 (p.15, line 8) and Darby et al. Lab. Invest. 1990 (p.1, line 24-25).
Table 3 presents the wound size (surface in cm^2) measured on day 3 as a percentage of the wound size measured on day 0.
The rats were treated with the peptidic product of example 1 at a dose of 3 mg/ml (mg of peptidic product, ml of 0.9% NaCl).

Consider “AcEEEDSTALVC (Ac-EEEDSTALVC) [amino terminal decapeptide of α-SM actin]”, for which the “blocking effects on the binding of monoclonal antibody anti-alpha SM-1” value in the test with anti-alpha SM-1 is reported as “blocking effects”.

Consider “Acetyl-glutamyl-glutamyl-glutamyl-aspartyl (Ac-EEED) [AcEEED]”, for which the “incorporation of α-SM actin into stress fibers” value in the test with SM cells is “inhibits the incorporation of α-SM actin into stress fibers”.

In the case of “ε-(Acetyl Glu Glu Glu Asp) Lys Arg Gln Ile Lys Ile Trp Phe Gln Asn Arg Arg Met Lys Trp Lys Lys OH [example 1, ε-(AcEEED)-K-(pAntp[43-58])]”, the “α-SM actin synthesis, control standardised at 100%” value is given as 72% in the test with α-SM actin (Experiment 1, 20 hours); 56% in the test with α-SM actin (Experiment 2, 20 hours); 44% in the test on α-SM actin (Experiment 3, 20 hours); 48% in the test with α-SM actin (Experiment 4, 20 hours); 55% in the test on α-SM actin (Mean of 4 experiments, 20 hours). In addition, the “decrease of the α-SM actin synthesis compared to control conditions” value with α-SM actin (mean value for the 4 experiments, 2 mg/ml culture medium) amounted to 55%. The “contractile activity of the wound” value in the test with splinted wound (3 mg/ml) is given as “decrease in contractile activity”. Further, the “Wound surface: wound size on day 3 as a percentage of the wound size on day 0” value in the test on splinted wound (3 mg/ml in 0.9% NaCl, 5 rats per group) is reported as 48.42 ± 2.02%.
